Drawing on patent US11319299B2, “Substituted carboxamides as inhibitors of WDR5 protein-protein binding” (PROPELLON THERAPEUTICS INC., priority 2016, dated 2022), this text covers Kd for 9 molecules.

Some results are limits rather than exact numbers.

For the first experiment, the target named is WDR5 (Homo sapiens (Human), UniProt P61964). The experiment is described as follows: Surface Plasmon Resonance (SPR) assay, KD and residence time. Format: binding. The note with it: surface plasmon resonance (SPR) assay; read-out: WDR5 binding affinity (KD).
Broadly, the Kd is the free concentration of one partner at which half of the binding sites on the other are occupied at equilibrium, for simple one-to-one binding. For the molecule `CC1CN(c2cc(F)c(-c3cnc(N4CCOCC4)nc3)cc2NC(=O)c2ccco2)CCN1C` (stereo in doubt) [Example 79, N-[4-fluoro-5-(2-morpholin-4-ylpyrimidin-5-yl)-2-[(3R)-3,4-dimethylpiperazin-1-yl]phenyl]furan-2-carboxamide], the dissociation constant (Kd) is above 200 nM.
As to `C[C@@H]1CN(c2cc(F)c(-c3cnc(N(C)C4CCOCC4)nc3)cc2NC(=O)c2c[nH]c(=O)cc2C(F)(F)F)C[C@H](C)N1C` [Example 371, N-[4-fluoro-5-[2-[methyl(oxan-4-yl)amino]pyrimidin-5-yl]-2-[(3R,5S)-3,4,5-trimethylpiperazin-1-yl]phenyl]-6-oxo-4-(trifluoromethyl)-1H-pyridine-3-carboxamide], the Kd was found to be 0.59 nM.
Same read-out and setting: in the case of `C[C@@H]1CN(c2cc(F)c(C3=CCN(C(=O)OC(C)(C)C)CC3)cc2NC(=O)c2cn(C)c(=O)cc2C(F)(F)F)C[C@H](C)N1C` [Example 313, tert-butyl 4-[2-fluoro-5-[[-methyl-6-oxo-4-(trifluoromethyl)pyridine-3-carbonyl]amino]-4-[(3R,5S)-3,4,5-trimethylpiperazin-1-yl]phenyl]-3,6-dihydro-2H-pyridine-1-carboxylate] it was 3.1 nM.

Still in this experiment, the particulars now being: surface plasmon resonance (SPR); read-out: WDR5 binding affinity (KD).
`C[C@@H]1CN(c2cc(F)c(-c3ccc4ncn(C)c4c3)cc2NC(=O)c2cn(C)c(=O)cc2C(F)F)C[C@H](C)N1C` [Example 681, 4-(difluoromethyl)-N-[4-fluoro-5-(3-methylbenzimidazol-5-yl)-2-[(3R,5S)-3,4,5-trimethylpiperazin-1-yl]phenyl]-1-methyl-6-oxopyridine-3-carboxamide]: the Kd was determined as 39.3 nM.
`C[C@@H]1CN(c2cc(F)c(-c3nc(C(=O)NCC4CC4)cs3)cc2NC(=O)c2c[nH]c(=O)cc2C(F)(F)F)C[C@H](C)N1C` [Example 482, N-(cyclopropylmethyl)-2-[2-fluoro-5-[[6-oxo-4-(trifluoromethyl)-1H-pyridine-3-carbonyl]amino]-4-[(3R,5S)-3,4,5-trimethylpiperazin-1-yl]phenyl]-1,3-thiazole-4-carboxamide]: the equilibrium dissociation constant (Kd) was determined as 1.75 nM.
On to `C[C@@H]1CN(c2ccc(-c3cc(NC(=O)c4c[nH]c(=O)cc4C(F)F)c(N4CCN(C)[C@@H](C)C4)cc3F)cn2)C[C@H](C)O1` [Example 514, 4-(difluoromethyl)-N-[4-fluoro-5-[6-[(2R,6S)-2,6-dimethylmorpholin-4-yl]pyridin-3-yl]-2-[(3S)-3,4-dimethylpiperazin-1-yl]phenyl]-6-oxo-1H-pyridine-3-carboxamide], for which the dissociation constant Kd is 0.959 nM.
With `C[C@@H]1CN(c2cc(F)c(-c3nc(C(=O)NC4CCCCC4)cs3)cc2NC(=O)c2c[nH]c(=O)cc2C(F)(F)F)C[C@H](C)N1C` [Example 484, N-Cyclohexyl-2-[2-fluoro-5-[[6-oxo-4-(trifluoromethyl)-1H-pyridine-3-carbonyl]amino]-4-[(3R,5S)-3,4,5-trimethylpiperazin-1-yl]phenyl]-1,3-thiazole-4-carboxamide], the Kd was 3.07 nM.
For `C[C@@H]1CN(c2nccc(-c3cc(NC(=O)c4cn(C)c(=O)cc4C(F)(F)F)c(N4C[C@@H](C)N(C)[C@@H](C)C4)cc3F)n2)C[C@H](C)O1` [Example 743, N-[4-fluoro-5-[2-[(2R,6S)-2,6-dimethylmorpholin-4-yl]pyrimidin-4-yl]-2-[(3R,5S)-3,4,5-trimethylpiperazin-1-yl]phenyl]-1-methyl-6-oxo-4-(trifluoromethyl)pyridine-3-carboxamide], the equilibrium dissociation constant (Kd) came to 5.22 nM.
As to `CC1CN(c2cc(F)c(-c3cc(F)c(C(N)=O)c(F)c3)cc2NC(=O)c2ccc(F)cc2C(F)(F)F)CCN1C` (stereo in doubt) [Example 657, 2,6-difluoro-4-[2-fluoro-5-[[4-fluoro-2-(trifluoromethyl)benzoyl]amino]-4-[(3R)-3,4-dimethylpiperazin-1-yl]phenyl]benzamide], the dissociation constant Kd came out at 4.69 nM.
